For assay [1], the system named is murine GB cells (GL261, iAGR53, PNp53, EGFRviii-shP16). Nature of the assay: 3D spheroid invasion in Matrigel, murine GB cells co-cultured with murine microglia. Format: cell-based. The protocol: Tumor spheroids. Tumor spheroids were prepared from mCherry/iRFP/GFP-labeled patient-derived, human U251 or murine GB cells (GL261, iAGR53, PNp53, EGFRviii-shP16), either alone or co-cultured with unlabeled primary human/murine microglia (4:1 ratio), using our modified hanging-drop method, as we previously described. For assessment of cell invasion, GB spheroids (4,000 cells/sphere) were embedded in Matrigel (Corning), seeded in a 96-well plate, and incubated with complete DMEM or complete DMEM supplemented with SELPi (0.5 µM). […] For FACS analysis, GB spheroids (8,000 cells/sphere) were embedded in Matrigel, seeded in a 12-well plate, and treated with complete DMEM, 0% serum microglia medium or microglia CM for 24-48 h. Cells were then recovered using Cell Recovery Solution (Corning) and further analyzed by FACS.

The test system of assay [2] is primary human microglia. The experiment in a line: Nitric oxide secretion evaluation. In kind it is cell-based. The following applies: added to rSELP; SELPi 0.5 µM, antibodies 2.5 µg/ml, 24 h. As for the experimental part:
Nitric oxide secretion evaluation. Primary human/murine microglia (1 × 10^5 cells/ml) were seeded in PLL-coated plates. Twenty-four hours post-seeding, cells were treated with: 0% serum DMEM, 0% serum DMEM supplemented rSELP (1.5 µg/ml), 0% serum DMEM exposed to rSELP and SELPi (0.5 µM), 0% serum DMEM exposed to rSELP and anti-PSGL-1 neutralizing antibody (2.5 µg/ml), 0% serum DMEM exposed to rSELP and anti-CD44 neutralizing antibody (2.5 µg/ml), or 0% serum DMEM exposed to rSELP and anti-CD24 neutralizing antibody (2.5 µg/ml) for 24 h. Alternatively, macrophages were seeded in 96 well plates (5 × 10^5 cells/ml) treated with macrophages medium, macrophages medium supplemented with rSELP (3.5 µg/ml), macrophages medium supplemented with rSELP and SELPi (0.5 µM), macrophages medium supplemented with rSELP and anti-PSGL-1 neutralizing antibody (2.5 µg/ml), macrophages medium supplemented with rSELP and anti-CD44 neutralizing antibody (2.5 µg/ml) or macrophages medium supplemented with rSELP and anti-CD24 neutralizing antibody (2.5 µg/ml) for 24 h. Medium was then collected for evaluation of nitrite levels by the Total Nitric Oxide and Nitrate/Nitrite Parameter Assay Kit. Optical density was measured by a SpectraMax M5e multi-detection microplate reader system (Molecular Devices).

The test system of assay [3] is bone marrow derived macrophages (BMDM). The experiment in a line: Flow cytometry of PSGL-1, CD206, CD38 on bone marrow derived macrophages. In kind it is cell-based, murine. The protocol: Primary murine bone marrow-derived macrophages (BMDM) isolation. Bone marrow cells were freshly isolated from the tibias and the femurs of 8-12 weeks old C57BL/6 mice (Envigo CRS, Israel). Bone marrow cells were extracted using 25-gauge syringe and passed through a 70 µm nylon strainer (Corning, Israel). For macrophages differentiation cells were incubated with 50 ng/ml recombinant murine GM-CSF for one week. The medium was replaced 4 days post cells isolation. Cells were tested for CD11b and F4/80 expression using flow cytometry.
Flow cytometry. For flow cytometry assays, cells were harvested using a cell scraper, and were then washed with PBS followed by additional washes with PBS supplemented with 1% BSA and 5 mM EDTA (FACS buffer). Tumor spheroids were recovered from Matrigel using Cell Recovery Solution (Corning) and washed with FACS buffer. To validate the purity of the microglia preparations, CD11b isolated cells or human microglia were incubated with TMEM119 and P2Y12-labeled antibodies for 1 h. For human TMEM119, primary antibody was unlabeled and cells were washed and incubated with secondary, Alexa 488 conjugated antibody. To assess P-Selectin and PSGL-1 expression, GB cells and microglia were seeded alone, co-cultured in a 2D petri dish, or grown as spheroids seeded in Matrigel. Cells were treated with control medium or CM for 48 h. They were then incubated with mouse anti-human P-Selectin antibody for 1 h on ice, and then were washed, and incubated with Alexa-488 labeled anti-mouse IgG binding protein for 1 h on ice. Alternatively, cells were incubated with rat anti-human PSGL antibody, and then were washed, and incubated with goat anti-rat, Alexa-488 labeled antibody for 1 h on ice. […] Fluorescence intensity was assessed using either an Attune flow cytometer (Life Technologies) or a Gallios™ flow cytometer (Beckman Coulter, USA) and the results were analyzed by Kaluza software (Beckman Coulter, USA).

The target in assay [4] is T1, L-Selectin (Homo sapiens, UniProt P14151).
T1 sequence (P14151 39-372): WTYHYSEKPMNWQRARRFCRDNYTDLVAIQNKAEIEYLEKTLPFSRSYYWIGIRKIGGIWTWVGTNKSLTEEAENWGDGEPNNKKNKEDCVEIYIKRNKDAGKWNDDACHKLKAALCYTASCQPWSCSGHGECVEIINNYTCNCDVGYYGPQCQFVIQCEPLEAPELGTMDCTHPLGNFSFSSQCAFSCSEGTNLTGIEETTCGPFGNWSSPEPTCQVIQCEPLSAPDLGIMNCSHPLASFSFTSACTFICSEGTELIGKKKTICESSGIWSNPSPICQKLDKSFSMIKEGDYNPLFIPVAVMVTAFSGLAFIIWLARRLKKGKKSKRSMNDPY
Conditions: cited from earlier work.

Setting [5] is: rSELP, or SELPi added to rSELP containing medium.

As to `COc1ccc(C2CC(c3c(O)cc(C)oc3=O)=NCCS2)c(OC)c1` (stereo not shown) [SELPi, 3-[7-(2,4-Dimethoxyphenyl)-2,3,6,7-tetrahydro-1,4-thiazepin-5-yl]-4-hydroxy-6-methyl-2H-pyran-2-one], in assay [1] (mesenchymal, proneural and classical lenti-induced murine GB subtypes), the “invasion of GB spheroids co-cultured with murine microglia” value was “significantly reduced the invasion”. Further, in assay [1] (murine GL261 GB model), the “3D spheroid invasion, murine GL261” value is “effect of SELPi on GB spheroids was observed”. In assay [2], the “restoration of NO levels” value was “restored”. In addition, the PSGL-1 expression entry in assay [3] (rSELP and GB CM, or SELPi added to GB CM) is on record as “reduced”. For the same compound, in assay [3] (setting [5]), the CD38 expression entry was “elevated” and the CD206 expression entry is on record as “reduced”. In addition, the “inhibiting effect on L-Selectin” value in assay [4] was “no inhibiting effects”.

Source of the values: US20230303712A1, “METHODS OF TREATING GLIOBLASTOMA” (Ramot at Tel-Aviv University Ltd., priority 2020, published 2023).
